The values below come from patent publication US20100015225A1, “SOLID DISPERSION OF A NEUROKININ ANTAGONIST” (priority 2006, published 2010).

The series is described as follows: Super-saturation studies: in-vitro dissolution in different media (SGF, FaSSIF, FeSSIF, buffer pH 7). The series is classed as physicochemical. The note with it: ~4 mg/ml = 100% release. An excerpt: The in-vitro dissolution of the HPMC-based solid dispersion 1B (Component 1B) and that of the enteric HPMC-P based solid dispersion 2D (Component 2D) were studied in different media and compared to the crystalline-hemihydrate or the amorphous compound A.

Structures are written as SMILES.

Consider `CN(C(=O)c1cc(C(F)(F)F)cc(C(F)(F)F)c1)[C@@H](/C=C/C(=O)N[C@@H]1CCCCNC1=O)Cc1ccc(Cl)c(Cl)c1` [A-amorphous, (4R)-4-[N′-methyl-N′-(3,5-bistrifluoromethyl-benzoyl)-amino]-4-(3,4-dichlorobenzyl)-but-2-enoic acid N—[(R)-epsilon-caprolactam-3-yl]-amide], for which the “Concentration of Compound A” value was determined as 102 µg/mL (FaSSIF, 10 min); 63 µg/mL (FaSSIF, 30 min); 9 µg/mL (FaSSIF, 60 min); 0 µg/mL (FaSSIF, 180 min); 531 µg/mL (FeSSIF, 10 min); 575 µg/mL (FeSSIF, 30 min). Besides, the “Concentration of Compound A” value turned out to be 48 µg/mL (FeSSIF, 60 min); 49 µg/mL (FeSSIF, 180 min); 491 µg/mL (SGF, 10 min); 0 µg/mL (SGF, 30 min); 0 µg/mL (SGF, 60 min); 0 µg/mL (SGF, 180 min).

Consider `CN(C(=O)c1cc(C(F)(F)F)cc(C(F)(F)F)c1)[C@@H](/C=C/C(=O)N[C@@H]1CCCCNC1=O)Cc1ccc(Cl)c(Cl)c1` [Compd A crystalline (hemihydrate), (4R)-4-[N′-methyl-N′-(3,5-bistrifluoro-methyl-benzoyl)-amino]-4-(3,4-dichlorobenzyl)-but-2-enoic acid N—[(R)-epsilon-caprolactam-3-yl]-amide semihydrate], for which the “Concentration of Compound A” value amounted to 0 µg/mL (FaSSIF, 10 min); 0 µg/mL (FaSSIF, 30 min); 0 µg/mL (FaSSIF, 60 min); 0 µg/mL (FaSSIF, 180 min); 62 µg/mL (FeSSIF, 10 min); 54 µg/mL (FeSSIF, 30 min). Further, the “Concentration of Compound A” value is 56 µg/mL (FeSSIF, 60 min); 44 µg/mL (FeSSIF, 180 min); 0 µg/mL (SGF, 10 min); 0 µg/mL (SGF, 30 min); 0 µg/mL (SGF, 60 min); 0 µg/mL (SGF, 180 min).
